Measured values from patent US8097431B2 (priority 2004, dated 2012).

Assays:
LexA-DBD:PR-LBD:VP16 = molecular target: T1, LexA-DBD:PR-LBD:VP16 (Homo sapiens, UniProt P06401); test: yeast progesterone tripartite bioassay; format: cell-based; conditions: progesterone receptor tripartite
T1 construct: expressed in transfected cells; host or cells: Saccharomyces cerevisiae W303 diploid yARUP16 transformed with pARUP32 (yARUP49)
T1 sequence (P06401 with tags, fused parts or gaps): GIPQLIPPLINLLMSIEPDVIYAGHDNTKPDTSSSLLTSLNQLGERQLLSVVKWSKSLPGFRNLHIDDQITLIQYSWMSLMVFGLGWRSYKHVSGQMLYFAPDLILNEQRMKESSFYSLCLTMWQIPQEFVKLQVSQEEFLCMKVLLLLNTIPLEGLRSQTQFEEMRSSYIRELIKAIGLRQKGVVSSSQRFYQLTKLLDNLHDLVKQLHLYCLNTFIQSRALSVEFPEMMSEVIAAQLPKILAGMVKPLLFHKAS
Description: Yeast were inoculated from a plate into synthetic media lacking leucine, uracil and histidine supplemented with 2% dextrose. After 18 hr incubation at 30° C., cells were washed with synthetic media lacking leucine, uracil and histidine supplemented with glycerol and resuspended in glycerol media to an absorbance at 600 nm of 0.03. Cells were grown for 4 hr then 50 μL of cells were added to each well of a 96-well plate. 50 μl of steroid in phosphate buffered saline 0.5% BSA. Cells were grown at 30° C. in a shaking water bath for 18 hr. To detect β-galactosidase activity, 25 μl of cells and 25 μl of Beta-Glo (Promega, Madison Wis.) were transferred to a luminescent 96-well plate (Fisher, Pittsburgh, Pa.). After 30 min incubation at room temperature, the reaction mixture was read using Lumimark (Bio-Rad, Hercules, Calif.).

[1] = molecular target: T2, progesterone tripartite system (Homo sapiens, UniProt P06401); test: progesterone bioactivity in serum of women on birth control (progesterone tripartite system); format: in vivo; conditions: women on fourth generation progestin
T2 construct: expressed in transfected cells; host or cells: Saccharomyces cerevisiae W303 diploid yARUP16 transformed with pARUP32 (yARUP49)
T2 sequence (P06401 with tags, fused parts or gaps): T1 sequence (P06401 with tags, fused parts or gaps)
Description: Serum samples were pre-treated by diluting with an equal volume of 0.9 mg/mL K2EDTA, (150 μl of serum was added to 150 μl of 0.9 mg/mL K2 EDTA), vortexed briefly and heated for 5 min at 72 C. Pre-treated serum was added to yeast expressing the androgen or progesterone tripartite, prepared as follows.
Yeast were inoculated from a frozen stock into synthetic media lacking leucine, uracil, and histidine supplemented with 2% dextrose. […] Twenty-five microliters of mid-log yeast were added to each well of a 384-well plate using a, BioMek 2000 (Beckman-Coulter). Serum samples were diluted with an equal volume of 0.9 mg/mL K2EDTA, (150 μL of serum was added to 150 μL of 0.9 mg/mL K2 EDTA), vortexed briefly and heated for 5 min at 72° C. Ten microliters of pre-treated sample was added to the plate. Ten microliters of serially diluted compound in H2O was incubated with 25 μL of yeast (Thermolabsystems). The plate was covered with Aeroseal sealing film (Research Products International, Palatine Ill.), and placed on a plate shaker for 5 min and the plate was incubated for 17-18 hr at 28° C. in a humidified incubator. After overnight incubation, the plate was shaken for 5 min. […] After about 2-hr incubation at room temperature, the β-galactosidase in the reaction mixture was determined using Luminskan luminometer (Thermolabsystems). […]

levels detectable by this method (LexA-DBD:PR-LBD:VP16)	Compound	serum progesterone levels of women on birth control [1]
1000-100,000 pg/ml	CC(=O)[C@H]1CC[C@H]2[C@@H]3CCC4=CC(=O)CC[C@]4(C)[C@H]3CC[C@]12C [Progesterone, progesterone]	–
–	C[C@]12CCC(=O)C=C1[C@@H]1C[C@@H]1[C@H]1[C@@H]3[C@@H]4C[C@@H]4[C@@]4(CCC(=O)O4)[C@@]3(C)CC[C@@H]12 [drospireone]	lower
